# Laboratory results as given in US7888319B2, “Compositions and methods for promoting wound healing and tissue regeneration” (MUSC Foundation for Research Development, priority 2004, dated 2011).
# Ends that are not written are not given here.
# Experiments:
# [1] = test system: 5 mm diameter excisional skin wounds; assay: Small (5 mm) excisional skin wounds in adult mice, ACT 1 to ACT 5; format: in vivo, mouse; conditions: for closure, inflammation, healing and scarring of injuries: 100 μM in pluronic gel, 50-60 μl, applied at 0 and 24 hours, 240 hour time course (10 days), vs gel without peptide; for wound closure rates (area of open wound as % of unclosed wound relative to the control): ~5 mice per condition, Mann-Whitney U-test over the time course
# Experimental: Anesthetized adult mice had 2 small (5 mm diameter) excisional skin wounds made by fine surgical scissors on the neck and (upper) back. The boundaries of the injuries were demarcated by a 5 mm wide circular template cut in a plastic sheet. 50-60 μl of a solution of 20% pluronic gel containing either no (control) or one of the ACT peptides (ACT 2-SEQ ID NO: 1, ACT 1-SEQ ID NO:2, ACT 3-SEQ ID NO:3, ACT 4-SEQ ID NO:4, ACT 5-SEQ ID NO:5) dissolved at concentrations of 100 μM were then applied to the excisional injuries. Control or ACT peptide-containing gel was applied subsequently 24 hours after the initial application. No further applications of control and ACT peptide-containing gel were made after the second application. […] Note that the same wound on the same animal is shown at the different time points during the healing time course. Anesthetized adult mice had 2 small (5 mm diameter) excisional skin wounds made by fine surgical scissors on the neck and (upper) back. The boundaries of the injuries were demarcated by a 5 mm wide circular template cut in a plastic sheet. 50-60 μl of a solution of 30% pluronic gel containing either no (control) or one of the ACT peptides (ACT 2—SEQ ID NO:1, ACT 1—SEQ ID NO:2, ACT 3—SEQ ID NO:3, ACT 4—SEQ ID NO:4, ACT 5—SEQ ID NO:5) dissolved at concentrations of 100 μM were then applied to the excisional injuries. Control or ACT peptide-containing gels were applied subsequently 24 hours after the initial application. No further applications of control and ACT peptide-containing gel were made after the second application. […] Note that the same wound on the same animal is shown at the different time points during the healing time course. The area of open wound was measured during the time course using NIH image according to standard protocols on multiple (˜5 mice per control or treatment condition) adult mice. These individual area measurements were then normalized to (i.e., divided by) the average area measured for the control injuries for a given time point, multiplied by 100 to give a % of unclosed wound relative to the control and then plotted against time. A Mann-Whitney U-test was used to statistically assess the effects of ACT peptides over the time course. […] These treatments provided results with significant p values.
# [2] = test system: 5 mm-diameter excisional skin wounds; assay: Quantitative assessment of wound closure, tissue regeneration and tensile strength of 5 mm excisional skin wounds; format: in vivo, mouse
# From the text: ACT peptide (n=12) and control (n=8) 5 mm-diameter excisional skin wounds were generated on adult mice as described above. Quantitative assessments of wound closure rate, counts of regenerated hair follicles and tensile strength measurements were then undertaken on the wounded skin at time points up to 90 days following the initial insult. […] Similarly, at 10 days, when most wounds were nearing completion of closure, a highly significant difference was still maintained such that ACT peptide-treated wounds were on average 43% smaller than control wounds. […] Studies were undertaken of the mechanical properties of healed 5 mm diameter excisional wounds at 1 month and 3 months following injury. For mechanical property measurements, the skin samples were obtained after sacrificing the animal and evaluated using a MTS 858 Mini Bionix (MTS Systems Corporation, MN, USA) equipped with a 5 kg load cell. During measurement the skin sample was extended to break at a rate of 0.5 mm/s. Force and extension was measured at break. The tensile strength (stress) and extension to break (strain) was calculated as follows, Stress (N/mm^2)=Force at break (N)/cross-sectional area of sample (mm^2). Strain (%)=[Increase in length at break (mm)/Original length (mm)]×100. Stress and strain calculations for each wounded skin sample was normalized to a normal skin sample from a nearby area collected from the same animal. […] At 3 months, normalized stress to break of peptide-treated wound skin was on average double that of control wounded skin, although the high variance within the treatment group precluded significant mean separation from the control. […] Further, significant improvements in extensibility of peptide-treated wounds were found. […] By contrast, control wounds at 3 months remained only 60% as extensible as normal skin.
# brain penetration injury = assay: Penetration injury of brain in adult rat with hollow fiber membrane (HFM) implant; format: in vivo
# Experimental: (b) and (c) show low magnification survey views of sections of brain tissue (cortex) surrounding hollow fiber membrane (HFM) implants filled with ACT peptide (100 μM) plus vehicle gel (b) or collagen vehicle gel alone as control (c). In the control tissue (c), a high density of immunolabeled GFAP-positive astrocytes is observed near the site of injury caused by the HFM. The density of these cells appears to diminish slightly distal from the injury. […] Indeed, the levels of GFAP positive cells are not dissimilar to those seen in normal uninjured brain tissue. The regions of tissue within the white rectangles in figures (b) and (c) are shown at higher magnification in (d) and (e) respectively. In the brain injury treated by ACT peptide (d), it can be seen that GFAP-positive astrocytes are not only less numerous, but are also smaller than those seen in the control injury (e).
# (a) and (b) show low magnification survey views of sections of brain tissue (cortex) surrounding HFM implants (implant or injury border is shown by arrows) filled with control collagen vehicle gel or ACT peptide plus vehicle gel at 1 week following brain penetration injury. In the control tissue (b), a high density of immunolabeled GFAP-positive astrocytes and a low density of NeuN immunolabeled neurons are observed near the site of injury caused by the HFM. The density of these cells appears to diminish and increase, respectively, distal from the HFM. […] The areas in (a) and (b) proximal to the HFMs are shown at high magnification views in (c) and […], respectively. Again, in the control tissue (d) a striking increase in the density of GFAP-positive astrocytes and a reduced density of NeuN-positive neurons is observed compared to ACT peptide treated tissue (c). A complementary pattern is observed near the HFM containing ACT peptide, with NeuN positive neurons predominating over astrocytes (c).
# Anesthetized adult rats were positioned in a stereotaxic apparatus. A midline incision was made on the scalp to expose the skull. A stereotaxic drill was sighted 2 mm posterior to the bregma and 2 holes were drilled with a 1 mm spherical bit, each at 2.5 mm to the right and left of the bregma, and 3.5 mm below the dura. A cerebral lesion was made by inserting an 18-gauge needle. The coordinates were determined from the atlas by Paxinos and Watson (1986). The hollow fiber membrane (HFM) was inserted in the hole and external skin sutures were placed to cover the stab. The ACT peptide was dissolved at 100 μM concentration in a 2% collagen vehicle solution contained within the HFM. […] Reactive astrocytosis associated with inflammation and subsequently with glial scar formation follows a well characterized time course after brain injury in rodent models (Norenberg, 1994; Fawcett and Asher, 1999). […]
# NIH-3T3 cells = assay: In vitro scratch injury of NIH-3T3 monolayer (repopulation, PCNA immunolabeling); format: cell-based; conditions: 30 μM, 24 hours after scratch
# Experimental: An NIH-3T3 monolayer was pre-treated with ACT 1 peptide (SEQ ID NO:2) for 24 hrs, and “scratch-injured” with a p200 pipette tip. The “scratch injury” was subsequently allowed to “heal” for 24 hours in the presence of (a, b) 30 μM ACT 1 peptide (SEQ ID NO:2), (c, d) 30 μM non-active control peptide (SEQ ID NO: 55), or (e, f) vehicle control solution containing no ACT peptide or control peptide. […] The repopulation of the “scratch injury” occurs in part via migration of the transformed cells crawling into the “scratch injury” area. Figures (b), (d) and (f) show proliferating cell nuclear antigen (PCNA) immunolabeling of cells in the “scratch injury” or at the injury edge.
# NIH-3T3 fibroblasts were “scratch injured” and subject to the continuous presence of 30 μM ACT 1 peptide (SEQ ID NO:2) for 24 hours or the control conditions as outlined in FIG. 2. […] The cells have been labeled with fluorescent phalloidin to aid visualization. ACT peptide-treated cells show low levels of repopulation of the scratch injury area (white double headed arrows).
# NIH-3T3 cells were grown over 2-3 days until forming a near-confluent monolayer on a tissue culture dish according to standard protocols and the monolayer was then pre-treated with ACT 1 peptide (SEQ ID NO:2) for 24 hrs, and “scratch-injured” with a p200 pipette tip. The “scratch injury” was subsequently allowed to repopulate for 24 hours in the presence of 30 μM ACT 1 peptide (SEQ ID NO:2) dissolved in the culture media (FIG. 2a, b) or in presence of two control conditions (FIG. 2c-f). In the first control condition, the “scratch-injured” cells were allowed to repopulate for 24 hours in the presence of a non-active control peptide (as in FIG. 1) dissolved in the culture media at a concentration of 30 μM (FIG. 2c, d). In the second control condition, phosphate buffered saline (PBS) was added to the culture media and the “scratch-injured” cells were allowed to repopulate in the presence of this vehicle control solution containing no ACT peptide or control peptide (FIG. 2e, f). […] The repopulation of the “scratch injury” occurs in part via migration of the transformed cells crawling into the “scratch injury” area. Figures (FIGS. 2b, d, and f) show proliferating cell nuclear antigen (PCNA) immunolabeling of cells in the “scratch injury” or at the injury edge.
# The cells were labeled with fluorescent phalloidin to aid visualization. ACT peptide-treated cells show low levels of repopulation of the scratch injury area (white double headed arrows).
sequence,measurement,setting,value
PSSRASSRASSRPRPDDLEI [ACT 2],"closure, inflammation, healing and scarring of injuries",[1],"closed faster, were significantly less inflamed in appearance, healed faster and scarred less"
same,wound closure rates (area of open wound as % of unclosed wound relative to the control),[1]; 100 μM,significantly improved wound closure rates
RPRPDDLEV [ACT 3],"closure, inflammation, healing and scarring of injuries",[1],"closed faster, were significantly less inflamed in appearance, healed faster and scarred less"
same,"size of improvement in wound closure over the control, compared among peptides","[1]; 100 μM, over the time course",most pronounced improvements over the control
same,wound closure rates (area of open wound as % of unclosed wound relative to the control),[1]; 100 μM,significantly improved wound closure rates
ACT peptide: alpha Connexin carboxy-Terminal polypeptide used in brain injury and Example 4 studies; sequence not stated there (RQPKIWFPNRRKPWKKRPRPDDLEI; not fully specified (N-terminus)),strain (extensibility) required to break wounds,"[2]; at 1 month, vs control wounds",modestly improved
same,"strain to break of peptide-treated wound skin, normalized to normal skin","[2]; at 3 months, normalized to normal skin, control wounds 60%",90%
same,normalized stress to break of wound skin,"[2]; at 3 months, vs control wounded skin, not significant (high variance)",double
same,increase in the number of regenerated hair follicles per unit area of the healed wound over control wounds,[2]; at 10 days,3.2 fold
same,"wound size, smaller than control wounds (average)",[2]; at 10 days,43%
same,wound closure relative to control wounds,"[2]; within 24 hours of peptide treatment, n=12 vs control n=8",significantly enhanced
same,density of GFAP-positive astrocytes adjacent the HFM,"brain penetration injury; 100 μM in 2% collagen vehicle within HFM, 1 week after injury, vs collagen vehicle gel",much lower density
same,neurons in the process of fission,"brain penetration injury; 100 μM in HFM, 1 week, high magnification view, relative to the control",high frequency of neurons in the process of fission
same,numbers of NeuN immunolabeled neurons proximal to the HFM,"brain penetration injury; 100 μM in HFM, 1 week, vs control",higher numbers
same,size of GFAP-positive astrocytes,"brain penetration injury; 100 μM in HFM, 1 week, vs control injury",smaller
"RQPKIWFPNRRKPWKIELDDPRPR (not fully specified (N-terminus)) [non-active control peptide, reference compound]",proliferating cell nuclear antigen (PCNA) immunolabeling of cells in the scratch injury or at the injury edge,NIH-3T3 cells,brightly labeled proliferating cells seen
same,repopulation of the scratch injury area,NIH-3T3 cells; 24 hrs pre-treatment,large numbers of cells
"KARSDDLSV [ACT 5, 9 amino acids of the carboxy terminus of human Cx40]","closure, inflammation, healing and scarring of injuries",[1],"closed faster, were significantly less inflamed in appearance, healed faster and scarred less"
same,wound closure rates (area of open wound as % of unclosed wound relative to the control),[1]; 100 μM,significantly improved wound closure rates
RPRPDDVPV [ACT 4],"closure, inflammation, healing and scarring of injuries",[1],modest improvement in healing over the control
same,wound closure rates (area of open wound as % of unclosed wound relative to the control),[1]; 100 μM,"more modest, although consistent, improvement"
